# Patent publication US20100331282A1, “PYRIDINE DERIVATIVE CONTAINING ((PHOSPHONOOXY)METHYL)PYRIDINIUM RING, AND ANTIFUNGAL AGENT CONTAINING THESE DERIVATIVE” (priority 2009, published 2010)
# Assays:
# [1] = Comparative test of solubility in water (Britton-Robinson buffer); type: physicochemical; settings: aqueous buffer, Britton-Robinson buffer (ion strength of 0.3) at 25° C.
# Description: 3-(3-(4-(Pyridin-2-ylmethoxy)-benzyl)-isoxazol-5-yl)-pyridin-2-ylamine described in Reference Example 1, which is the parent compound, and the compound of Example 1 were compared for solubility in a Britton-Robinson buffer (ion strength of 0.3) at 25° C.
# [2] = tested on: C. albicans CAF2-1 strain; experiment: Anti-Candida activity (MIC measurement); type: cell-based; settings: CAF21STRAIN, RPMI1640 medium, 42-48 hours at 35° C., visual inspection, read-out: Anti-Candida (minimum inhibitory concentration, MIC)
# Description: (§1) For the C. albicans CAF2-1 strain, a fungal suspension from a standing culture for 48 hours at 30° C. in a Sabouraud dextrose liquid culture medium (SDB) was diluted with RPMI1640 medium to adjust a fungal suspension of 1.2×10^3 cells/mL. For the A. fumigatus Tsukuba strain, −80° C. stored strain was diluted with RPMI1640 medium to adjust to a fungal suspension of 4.5×10^3 cells/mL.
# (§2) Using a U-bottomed 96 well plate, 8 samples/plate (A to H) of sample dilution solutions were prepared. On the 2nd to 12th rows were dispensed 10 μl of dimethyl sulfoxide solution. Weighted sample was dissolved in dimethyl sulfoxide to prepare a 2.5 mg/mL solution, 20 μl of this solution was added to the first row of the prepared plate, and 12 steps of two-folded step dilutions (10 μl of solution+10 μl of dimethyl sulfoxide solution) were performed on the plate. This sample dilution solution was dispensed in the amount of 1 μl to a flat-bottomed 96 well plate for MIC measurement to prepare a sample dilution plate.
# (§3) The fungal suspension prepared in (1) was used in the amount of […] to inoculate the flat-bottomed 96 well plate containing 1 μL/well of the test compound dilution prepared in (2), and a standing culture was carried out aerobically for 42-48 hours at 35° C.
# [3] = tested on: A. fumigatus Tsukuba strain; experiment: Anti-Aspergillus activity (MIC measurement); type: cell-based; settings: RPMI1640 medium, 42-48 hours at 35° C., visual inspection, read-out: Anti-Aspergillus activity (minimum inhibitory concentration, MIC)
# Description: as §1, §2, §3
# [4] = Conversion into parent compound (active form) in human liver S9 fraction; type: in vitro ADME; settings: human liver S9 reaction solution, 0.2 mg/mL protein, 10 μmol/L compound, pH 7.4, 37° C., 0, 30, 60 minutes, LC-MS (FIG. 1)
# Description: (§4) A suspension (pH of 7.4) containing human and monkey liver S9 fractions (with a protein concentration of 0.22 mg/mL), 0.5 mmol/L magnesium chloride, and 100 mmol/L tris-HCl was prepared over ice (various reaction solutions A). 30 μL of a 100 μmol/mL aqueous solution of the compound according to the present invention (the compound of Example 1) was added to the various reaction solutions A (for a final compound concentration of 10 μmol/L) to obtain various liver S9 reaction solutions (with a final protein concentration of 0.2 mg/mL), and these were stored on ice until (2) was carried out. A control sample was prepared (reaction buffer solution) by adding 30 μL of a […] aqueous solution of the compound according to the present invention (the compound of Example 1) to 0.27 mL of a buffer (pH of 7.4) containing 0.5 mmol/L magnesium chloride and 100 mmol/L tris-HCl. […]
# (§5) (3) The Concentrations of the Compound According to the Present Invention (the Compound of Example 1) and the Parent Compound (the Compound of Reference Example 1) in the Reaction Solution were Quantified by LC-MS.
# (§6) The concentrations of the compound according to the present invention (the compound of Example 1) and the parent compound (the compound of Reference Example 1) in the reaction solution were measured by the method described in 2. above. […]
# [5] = Conversion into parent compound (active form) in monkey liver S9 fraction; type: in vitro ADME; settings: monkey liver S9 reaction solution, 0.2 mg/mL protein, 10 μmol/L compound, pH 7.4, 37° C., 0, 30, 60 minutes, LC-MS (FIG. 2)
# Description: as §4, §5, §6
Compound,solubility ([1]; pH 3) [µg/mL],solubility ([1]; pH 7) [µg/mL],solubility ([1]; pH 9) [µg/mL],MIC [2] [µg/mL],MIC [3] [µg/mL],Conversion into the parent compound (compound of Reference Example 1) [4],Conversion into the parent compound (compound of Reference Example 1) [5]
"Nc1ncccc1-c1cc(Cc2ccc(OCc3ccccn3)cc2)no1 [Reference Example 1, 3-(3-(4-(Pyridin-2-ylmethoxy)-benzyl)-isoxazol-5-yl)-pyridin-2-ylamine]",400,< 100,< 100,0.2,0.39,–,–
"Nc1ncccc1-c1cc(Cc2ccc(OCc3cccc[n+]3COP(=O)([O-])O)cc2)no1 [Example 1, 2-((4-((5-(2-Amino-3-pyridinyl)-3-isoxazolyl)methyl)phenoxy)methyl)-1-((phosphonooxy)methyl)pyridinium mono-trifluoroacetate]",> 70000,> 70000,> 70000,–,–,converted into the parent compound,converted into the parent compound
